Experiment [1] has as its system CDK8 (TCF/LEF luciferase reporter in HCT116 cells). Briefly: Cell based TCF/LEF reporter assay (HCT116+TCF/LEF luciferase). To be noted: Homo sapiens, HCT-116, 24 h. The gist of the method: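 Luciferase readout was corrected for viability (CellTiter-Fluor) and scaled between DMSO high and 10 uM CCT251545 low controls, giving IC50 by nonlinear regression. Compounds, serially diluted, were incubated 24 h at 37 °C on HCT116 clones stably expressing a TCF/LEF-driven luciferase reporter.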

Experiment [2] concerns CDK8 (phosphorylation of STAT1 at serine 727 in A549 cells). Description: Cell based Phospho-STAT1 assay (IFNγ-stimulated A549 cells, AlphaLISA). Conditions: Homo sapiens, A549, A549 cells, phospho-STAT1 after IFNγ stimulation. The gist of the method: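 A549 cells given serial compound dilutions for 1 h at 37 °C, then stimulated with IFNγ at 10 ng/mL final for 30 min. Lysate STAT1 Ser727 phosphorylation measured by AlphaLISA; % inhibition vs stimulated/unstimulated DMSO controls, IC50 by nonlinear regression.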

As for `Cn1cc(-c2ccc(-c3cnn4cccc(C#CCOCCO)c34)cc2)cn1` [Compound P-0245, 2-((3-(3-(4-(1-methyl-1H-pyrazol-4-yl)phenyl)pyrazolo[1,5-a]pyridin-4-yl)prop-2-yn-1-yl)oxy)ethan-1-ol], the IC50 in experiment [1] was 100 to 1000 nM; in experiment [2] it was 0.1 to 100 nM.

As for `N#CC1(c2ccccc2)CCN(c2cccc3ncc(-c4ccc(-c5cnn(C(F)F)c5)cc4)n23)CC1` [Compound P-0322, 1-(3-(4-(1-(difluoromethyl)-1H-pyrazol-4-yl)phenyl)imidazo[1,2-a]pyridin-5-yl)-4-phenylpiperidine-4-carbonitrile], the IC50 in experiment [1] and in experiment [2] was 100 to 1000 nM each time.

In the case of `COc1ccc2cc(-c3cnc4[nH]ccc4c3C3=CCC(C#N)CC3)ccc2n1` (centres unmarked) [Compound P-0190, 4-(5-(2-methoxyquinolin-6-yl)-1H-pyrrolo[2,3-b]pyridin-4-yl)cyclohex-3-ene-1-carbonitrile], the IC50 in experiment [1] and in experiment [2] was 0.1 to 100 nM throughout.

Consider `CC(C)(C#Cc1nccn2ncc(-c3ccc(N4CCOCC4)c(F)c3)c12)C(N)=O` [Compound P-0099, 4-(3-(3-fluoro-4-morpholinophenyl)pyrazolo[1,5-a]pyrazin-4-yl)-2,2-dimethylbut-3-ynamide], for which the IC50 in experiment [1] was in the range of 100 to 1000 nM; in experiment [2] it was 0.1 to 100 nM.

Regarding `Cn1cc(-c2ccc(-c3cnn4ccnc(C5CCC(C(N)=O)CC5)c34)cc2)cn1` (centres unmarked) [Compound P-0247, 4-(3-(4-(1-methyl-1H-pyrazol-4-yl)phenyl)pyrazolo[1,5-a]pyrazin-4-yl)cyclohexane-1-carboxamide], the IC50 in experiment [1] and in experiment [2] was 0.1 to 100 nM in each case.

As for `N#CC1CC=C(c2nccn3ncc(-c4ccc(OCC(O)CN5CCCCC5)cc4)c23)CC1` (centres unmarked) [Compound P-0084, 4-(3-(4-(2-hydroxy-3-(piperidin-1-yl)propoxy)phenyl)pyrazolo[1,5-a]pyrazin-4-yl)cyclohex-3-ene-1-carbonitrile], the IC50 in experiment [1] and in experiment [2] was 0.1 to 100 nM throughout.

`CC(C)(C#Cc1cccn2ncc(-c3ccc(-c4cnn(CC(N)=O)c4)cc3)c12)C(N)=O` [Compound P-0462, 4-(3-(4-(1-(2-amino-2-oxoethyl)-1H-pyrazol-4-yl)phenyl)pyrazolo[1,5-a]pyridin-4-yl)-2,2-dimethylbut-3-ynamide]: the IC50 in experiment [1] and in experiment [2] was 0.1 to 100 nM throughout.

In the case of `CC1(COc2ccc(-c3cnn4ccnc(C5=CCC(C#N)CC5)c34)cc2)COC1` (centres unmarked) [Compound P-0055, 4-(3-(4-((3-methyloxetan-3-yl)methoxy)phenyl)pyrazolo[1,5-a]pyrazin-4-yl)cyclohex-3-ene-1-carbonitrile], the IC50 in experiment [1] and in experiment [2] was 0.1 to 100 nM in each case.

As for `CC(C)(O)Cn1cc(-c2ccc(-c3cnc4[nH]cc(Cl)c4c3N3CCC(C#N)CC3)cc2)cn1` [Compound P-0204, 1-(3-chloro-5-(4-(1-(2-hydroxy-2-methylpropyl)-1H-pyrazol-4-yl)phenyl)-1H-pyrrolo[2,3-b]pyridin-4-yl)piperidine-4-carbonitrile], the IC50 in experiment [1] and in experiment [2] was 0.1 to 100 nM in each case.

Regarding `N#CC1CC=C(c2nccn3ncc(-c4ccc5[nH]ncc5c4)c23)CC1` (centres unmarked) [Compound P-0070, 4-(3-(1H-indazol-5-yl)pyrazolo[1,5-a]pyrazin-4-yl)cyclohex-3-ene-1-carbonitrile], the IC50 in experiment [1] and in experiment [2] was 0.1 to 100 nM throughout.

For `N#CC1CCC(c2nccn3ncc(-c4ccc(-c5cnn(CC6CCC6)c5)cc4)c23)CC1` (centres unmarked) [Compound P-0022, (1s,4s)-4-(3-(4-(1-(cyclobutylmethyl)-1H-pyrazol-4-yl)phenyl)pyrazolo[1,5-a]pyrazin-4-yl)cyclohexane-1-carbonitrile], the IC50 in experiment [1] and in experiment [2] was 0.1 to 100 nM each time.

As for `N#CC1CC=C(c2nccn3ncc(-c4ccc(OCCOC5CCS(=O)(=O)CC5)cc4)c23)CC1` (centres unmarked) [Compound P-0057, 4-(3-(4-(2-((1,1-dioxidotetrahydro-2H-thiopyran-4-yl)oxy)ethoxy)phenyl)pyrazolo[1,5-a]pyrazin-4-yl)cyclohex-3-ene-1-carbonitrile], the IC50 in experiment [1] and in experiment [2] was 0.1 to 100 nM throughout.

As to `CC(C)(O)Cn1cc(-c2ccc(-c3cnn4ccnc(C5CCC(C#N)CC5)c34)cn2)cn1` (centres unmarked) [Compound P-0459, (1s,4s)-4-(3-(6-(1-(2-hydroxy-2-methylpropyl)-1H-pyrazol-4-yl)pyridin-3-yl)pyrazolo[1,5-a]pyrazin-4-yl)cyclohexane-1-carbonitrile], the IC50 in experiment [1] and in experiment [2] was 0.1 to 100 nM each time.

Take `N#CC1CCN(c2cccn3ncc(-c4ccc(OCc5ccccc5)cc4)c23)CC1` [Compound P-0267, 1-(3-(4-(benzyloxy)phenyl)pyrazolo[1,5-a]pyridin-4-yl)piperidine-4-carbonitrile]: the IC50 in experiment [1] and in experiment [2] was 100 to 1000 nM throughout.

With `N#CC1CC=C(c2cccn3ncc(-c4ccc(OCC5CCCCO5)cc4)c23)CC1` (centres unmarked) [Compound P-0182, 4-(3-(4-((tetrahydro-2H-pyran-2-yl)methoxy)phenyl)pyrazolo[1,5-a]pyridin-4-yl)cyclohex-3-ene-1-carbonitrile], the IC50 in experiment [1] and in experiment [2] was 0.1 to 100 nM in each case.

`N#CC1CC=C(c2nccn3ncc(-c4cc5ccccc5s4)c23)CC1` (centres unmarked) [Compound P-0073, 4-(3-(benzo[b]thiophen-2-yl)pyrazolo[1,5-a]pyrazin-4-yl)cyclohex-3-ene-1-carbonitrile]: the concentration for half-maximal inhibition (IC50) in experiment [1] and in experiment [2] was 0.1 to 100 nM throughout.

In the case of `N#CC1CC=C(c2nccn3ncc(-c4ccc(-c5cnn(C(F)F)c5)cc4)c23)CC1` (centres unmarked) [Compound P-0012, 4-(3-(4-(1-(difluoromethyl)-1H-pyrazol-4-yl)phenyl)pyrazolo[1,5-a]pyrazin-4-yl)cyclohex-3-ene-1-carbonitrile], the half-maximal inhibitory concentration (IC50) in experiment [1] and in experiment [2] was 0.1 to 100 nM throughout.

In the case of `CC(C)(O)Cn1cc(-c2ccc(-c3cnc4[nH]ccc4c3C#CC(C)(C)C(N)=O)cc2)cn1` [Compound P-0133, 4-[5-[4-[1-(2-hydroxy-2-methyl-propyl)pyrazol-4-yl]phenyl]-1H-pyrrolo[2,3-b]pyridin-4-yl]-2,2-dimethyl-but-3-ynamide], the IC50 in experiment [1] and in experiment [2] was 100 to 1000 nM throughout.

As to `CC(C)(C#Cc1cccn2ncc(-c3ccc(-c4cnn(CCC#N)c4)cc3)c12)C(N)=O` [Compound P-0005, 4-(3-(4-(1-(2-cyanoethyl)-1H-pyrazol-4-yl)phenyl)pyrazolo[1,5-a]pyridin-4-yl)-2,2-dimethylbut-3-ynamide], the IC50 in experiment [1] and in experiment [2] was 0.1 to 100 nM throughout.

For `N#CC1CCC(c2nccn3ncc(-c4ccc5c(cnn5C5CCCCO5)c4)c23)CC1` (centres unmarked) [Compound P-0109, 4-(3-(1-(tetrahydro-2H-pyran-2-yl)-1H-indazol-5-yl)pyrazolo[1,5-a]pyrazin-4-yl)cyclohexane-1-carbonitrile], the IC50 fell in the range of 100 to 1000 nM in experiment [1] and 0.1 to 100 nM in experiment [2].

As for `O=C1NCCC12CCN(c1cccn3ncc(-c4ccc(OCCOC5CCOCC5)cc4)c13)CC2` [Compound P-0145, 8-(3-(4-(2-((tetrahydro-2H-pyran-4-yl)oxy)ethoxy)phenyl)pyrazolo[1,5-a]pyridin-4-yl)-2,8-diazaspiro[4.5]decan-1-one], the IC50 in experiment [1] and in experiment [2] was 0.1 to 100 nM in each case.

For `N#CC1CC=C(c2nccn3ncc(-c4ccc(C(N)=O)c(F)c4)c23)CC1` (centres unmarked) [Compound P-0105, 4-(4-(4-cyanocyclohex-1-en-1-yl)pyrazolo[1,5-a]pyrazin-3-yl)-2-fluorobenzamide], the IC50 was 100 to 1000 nM in experiment [1] and 0.1 to 100 nM in experiment [2].

As to `COc1ccc2cc(-c3cnn4cccc(C5CCC(C#N)CC5)c34)ccc2n1` (centres unmarked) [Compound P-0195, 4-(3-(2-methoxyquinolin-6-yl)pyrazolo[1,5-a]pyridin-4-yl)cyclohexane-1-carbonitrile], the IC50 in experiment [1] and in experiment [2] was 0.1 to 100 nM each time.

In the case of `N#CC1CCC(c2cccn3ncc(-c4ccc(N5CCOCC5)nc4)c23)CC1` (centres unmarked) [Compound P-0141, 4-(3-(6-morpholinopyridin-3-yl)pyrazolo[1,5-a]pyridin-4-yl)cyclohexane-1-carbonitrile], the IC50 in experiment [1] and in experiment [2] was 0.1 to 100 nM each time.

Take `N#CC1CC=C(c2cccn3ncc(-c4ccc(-n5cccn5)cc4)c23)CC1` (centres unmarked) [Compound P-0225, 4-(3-(4-(1H-pyrazol-1-yl)phenyl)pyrazolo[1,5-a]pyridin-4-yl)cyclohex-3-ene-1-carbonitrile]: the IC50 in experiment [1] and in experiment [2] was 0.1 to 100 nM throughout.

In the case of `CNC(=O)C1CCC(c2cccn3ncc(-c4ccc(-c5cnn(C(F)F)c5)cc4)c23)CC1` (centres unmarked) [Compound P-0317, 4-(3-(4-(1-(difluoromethyl)-1H-pyrazol-4-yl)phenyl)pyrazolo[1,5-a]pyridin-4-yl)-N-methylcyclohexane-1-carboxamide], the figures for the half-inhibitory concentration (IC50) in experiment [1] and in experiment [2] were 100 to 1000 nM and 0.1 to 100 nM, respectively.

For the molecule `CC(C)(C#Cc1nccn2ncc(-c3ccc(-c4cnn(CCCC#N)c4)cc3)c12)C(N)=O` [Compound P-0456, 4-(3-(4-(1-(3-cyanopropyl)-1H-pyrazol-4-yl)phenyl)pyrazolo[1,5-a]pyrazin-4-yl)-2,2-dimethylbut-3-ynamide], the IC50 in experiment [1] and in experiment [2] was 0.1 to 100 nM each time.

With `N#CC1CCN(c2cccn3ncc(-c4ccc(OCCCN5CCCCC5)cc4)c23)CC1` [Compound P-0260, 1-(3-(4-(3-(piperidin-1-yl)propoxy)phenyl)pyrazolo[1,5-a]pyridin-4-yl)piperidine-4-carbonitrile], the IC50 in experiment [1] and in experiment [2] was 100 to 1000 nM throughout.

For the origin of these results see patent US10703757B2, “Compounds and methods for CDK8 modulation and indications therefor” (Plexxikon Inc., priority 2016, dated 2020).
